From PMC11767451, “Novel Approaches to Monitor Pharmacokinetics and Metabolism of Gemcitabine-Ibandronate Conjugate in Mice and Dogs” (Molecules, 2025)

Legend:
[1] = Autosampler stability of extracted mouse plasma samples at 4 °C; assay type: physicochemical
Procedure: (§1) The stability of extracted dog and mouse plasma samples in the autosampler at 4 °C was established for 24 and 48 h. Except for GEM-IB, in mouse and dog plasma extracts, all analytes were within ±20% of the nominal enriched concentration for up to 48 h in the autosampler. GEM-IB was stable for up to 24 h under these conditions.
(§2) Method development and validation was conducted following applicable FDA guidelines for bioanalytical assays, as considered fit for purpose. Specificity. Endogenous interferences were excluded by analysis of blank plasma from 6 different individual lots of plasma. The lower limit of quantification (LLOQ) was determined as the lowest concentration consistently achieving an accuracy better than ±20% of the nominal concentration, with imprecision ≤20%. Predefined acceptance criteria. The performance of the assay was considered acceptable if intra- and inter-day imprecision (coefficient of variance, %CV) at each concentration was ≤15%, except at the LLOQ (≤20%). Intra- and inter-day accuracy had to be ±15% of the nominal value, except at the LLOQ (±20%). Calibration curves had to have a correlation coefficient (r) of 0.99 or better. Analytical recovery and imprecision. Intra- and inter-day analytical accuracy and imprecision were tested at least at four concentration levels depending on the LLOQ for each compound. Intra-day imprecision and accuracy were determined with n = 6 per QC level. Inter-day imprecision and accuracy were measured over 3 days, with six replicates for each QC concentration (n = 18). Extraction efficiency and matrix effect. Extraction efficiency for GEM-IB and metabolites was established by comparing the signals of the analytes after the extraction of QCs (n = 6/concentrations), with the signals of the extracted blank matrix spiked with the respective concentrations of analytes after the extraction procedure. The matrix effect was determined by comparing the analyte LC-MS/MS signal after spiking of the analyte into the extracted blank matrix (matrix from 6 different individual lots, analyte concentrations as for the QC samples) with the HPLC-MS/MS signal of the same amount of analyte in neat solution [25]. Carry-over. Carry-over was assessed by injecting blank buffer samples after analysis of the highest calibrators. Carry-over was considered insignificant if there was no signal at the relevant retention times exceeding 20% of the analyte signals at the LLOQ. Stability. QC samples were freshly prepared. One set was extracted and was analyzed immediately to determine baseline signals. Analyte stability in plasma was evaluated at two QC concentration levels (n = 3/concentration level) under different conditions: 1, 2, and 24 h at room temperature and at 4 °C. In addition, stability after extraction was determined after 24 h and 48 h at 4 °C in the autosampler and for up to 3 freeze (−70 °C)–thaw (ambient) cycles. Stability was assessed by comparing analyte concentrations with baseline (t0) concentrations. Stability was assumed when the results were within ±20% of the baseline concentrations. Long-term stability estimates were performed by re-extraction of samples used during the PK study (n = 6). Samples were initially analyzed for the PK assessment and were stored for 1.5 years (GEM-IB and IB) and 2.5 years (GEM, GEMMP, dFdU, and dFdU-MP) at <−70 °C prior to reanalysis. Stability was assessed by comparing analyte concentrations with the initial assessments. Stability was acceptable when the results were within ±20% of the baseline concentrations and the percent standard deviation (%-SD) was below 25%.

[2] = Autosampler stability of extracted dog plasma samples at 4 °C; assay type: physicochemical
Procedure: as §1, §2

Structure (SMILES)	%-ACC (% accuracy vs nominal) ([1]; 24 hours autosampler 4 °C)	%-ACC (% accuracy vs nominal) ([1]; 48 hours autosampler 4 °C)	%-ACC (% accuracy vs nominal) ([2]; 24 hours autosampler 4 °C)	%-ACC (% accuracy vs nominal) ([2]; 48 hours autosampler 4 °C)
Nc1ccn([C@@H]2O[C@H](CO)[C@@H](O)C2(F)F)c(=O)n1 [GEM, gemcitabine]	102.0%	107.0%	100.7%	106.8%
Nc1ccn([C@@H]2O[C@H](COP(=O)(O)O)[C@@H](O)C2(F)F)c(=O)n1 [GEMMP, gemcitabine-5′-phosphate]	96.9%	100.4%	92.4%	90.0%
O=c1ccn([C@@H]2O[C@H](CO)[C@@H](O)C2(F)F)c(=O)[nH]1 [dFdU, 2′,2′-difluoro-2′-deoxyuridine]	103.9%	103.4%	99.0%	102.0%
O=c1ccn([C@@H]2O[C@H](COP(=O)(O)O)[C@@H](O)C2(F)F)c(=O)[nH]1 [dFdUMP, 2′,2′-difluoro-2′-deoxyuridine-5′-phosphate]	102.4%	98.8%	92.6%	84.8%

More lines, now with the values ahead:

%-ACC (% accuracy vs nominal) ([1]; 24 hours autosampler 4 °C)	%-ACC (% accuracy vs nominal) ([1]; 48 hours autosampler 4 °C)	%-ACC (% accuracy vs nominal) ([2]; 24 hours autosampler 4 °C)	%-ACC (% accuracy vs nominal) ([2]; 48 hours autosampler 4 °C)	Structure (SMILES)
96.8%	59.7%	86.2%	63.4%	CCCCCN(C)CCC(O)(P(=O)(O)O)P(=O)(O)OP(=O)(O)OC[C@H]1O[C@@H](n2ccc(N)nc2=O)C(F)(F)[C@@H]1O (stereo partly drawn) [GEM-IB]
97.6%	98.6%	111.2%	107.7%	CCCCCN(C)CCC(O)(P(=O)(O)O)P(=O)(O)O [IB, ibandronate]
